From the supplement of paper PMC11208160

Assay: recombinant UMI read abundance after kanamycin selection (control-corrected) (log10(CPM+1)); higher = more efficient recombination; extreme values may be limits of the assay; sequences stand for … in AGTGCAGAGAAAATCGGCCAGTTTTCTCTGCCTGCAGTCCGCATGCCGTGGGACCCCTTGGGTTCTAACCTGTTGCCTAGATTTATGCAGCGGACTGCCTTTCTCCCAAAGTGATAAACCGG…AGGTTGGTTTCACT; site = the 11-nt donor
Method in brief: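 Two replicates each of selected and unselected plating were used in this pooled Escherichia coli screen of donor and donor-binding-loop pairs for the IS621 bridge recombinase. Selection was with IPTG (0.07 mM) and kanamycin. Counts of recombinant UMIs, amplified across the donor–target junction, were converted to CPM, averaged, scaled by control-derived factors and reported as log10(CPM+1).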
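Further: IS621 bridge recombinase in Escherichia coli cells against a fixed T5 target plasmid.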

Point of comparison: “GTATAGACATGGACCGGTTTTCCCGGTAATCCGTATTTGCC (site GCATAGACTGG)”, “recombinant UMI read abundance (log10)” value 2.19. Against it:
- GTAGTCTCATGGACCGGTTTTCCCGGTAATCCGTATTTGCG (site GTAGTCTCTCG) — higher, 3
- GTAGTTGCATGGACCGGTTTTCCCGGTAATCCGTATTTGCG (site GTAGTAGCTCG) — within 0.2 log units, 2.05
- GTAGTTGCATGGACCGGTTTTCCCGGTAATCCGTATTTGCG (site GTAGTCGCTCG) — lower, 1.78
- GTAGTTGCATGGACCGGTTTTCCCGGTAATCCGTATTTGCG (site GTAGTGGCTCG) — lower, 0.373
- GTAGTTGCATGGACCGGTTTTCCCGGTAATCCGTATTTGCG (site GTAGTTGCTCG) — higher, 2.88
- GTATACACATGGACCGGTTTTCCCGGTAATCCGTATTTGTA (site GTATACACTTA) — within 0.2 log units, 2.12
- GTATACACATGGACCGGTTTTCCCGGTAATCCGTATTTGTA (site GTATCCACTTA) — lower, 0
- GTATACACATGGACCGGTTTTCCCGGTAATCCGTATTTGTA (site GTATGCACTTA) — lower, 0.0117
- GTATACACATGGACCGGTTTTCCCGGTAATCCGTATTTGTA (site GTATTCACTTA) — lower, 0.0042
- GTATAGACATGGACCGGTTTTCCCGGTAATCCGTATTTGCC (site GAATAGACTGG) — within 0.2 log units, 2.37
- GTATAGACATGGACCGGTTTTCCCGGTAATCCGTATTTGCC (site GGATAGACTGG) — lower, 0.251
- GTATAGACATGGACCGGTTTTCCCGGTAATCCGTATTTGCC (site GTATAGACTGG) — higher, 2.83
- GTATATCCATGGACCGGTTTTCCCGGTAATCCGTATTTGGT (site GTATATCCTAC) — lower, 1.08
- GTATCAACATGGACCGGTTTTCCCGGTAATCCGTATTTGAA (site GTATCAACTTT) — lower, 1.01
- GTATCCACATGGACCGGTTTTCCCGGTAATCCGTATTTGTA (site GTATACACTTA) — lower, 0.926
- GTATCCACATGGACCGGTTTTCCCGGTAATCCGTATTTGTA (site GTATCCACTTA) — lower, 1.94
- GTATCCACATGGACCGGTTTTCCCGGTAATCCGTATTTGTA (site GTATGCACTTA) — lower, 0.019
- GTATCCACATGGACCGGTTTTCCCGGTAATCCGTATTTGTA (site GTATTCACTTA) — lower, 0.00595
- GTATGAACATGGACCGGTTTTCCCGGTAATCCGTATTTGTA (site GTATGAACTTA) — higher, 2.42
- GTATGAACATGGACCGGTTTTCCCGGTAATCCGTATTTGTA (site GTATGCACTTA) — lower, 0.00699
- GTATGAACATGGACCGGTTTTCCCGGTAATCCGTATTTGTA (site GTATGGACTTA) — lower, 0.255
- GTATGAACATGGACCGGTTTTCCCGGTAATCCGTATTTGTA (site GTATGTACTTA) — lower, 0
- GTATGATCATGGACCGGTTTTCCCGGTAATCCGTATTTGGG (site GTATGATCTCC) — lower, 0.738
- GTATGCACATGGACCGGTTTTCCCGGTAATCCGTATTTGTG (site GTATGCACTAA) — lower, 0.198
- GTATGCACATGGACCGGTTTTCCCGGTAATCCGTATTTGTG (site GTATGCACTCA) — lower, 1.34
- GTATGCACATGGACCGGTTTTCCCGGTAATCCGTATTTGTG (site GTATGCACTGA) — lower, 0.881
- GTATGCACATGGACCGGTTTTCCCGGTAATCCGTATTTGTG (site GTATGCACTTA) — lower, 1.29
- GTATGCCCATGGACCGGTTTTCCCGGTAATCCGTATTTGTA (site GTATGCACTTA) — lower, 0.0189
- GTATGCCCATGGACCGGTTTTCCCGGTAATCCGTATTTGTA (site GTATGCCCTTA) — lower, 0.172
- GTATGCCCATGGACCGGTTTTCCCGGTAATCCGTATTTGTA (site GTATGCGCTTA) — lower, 0.0563
- GTATGCCCATGGACCGGTTTTCCCGGTAATCCGTATTTGTA (site GTATGCTCTTA) — lower, 1.76
- GTATGCTCATGGACCGGTTTTCCCGGTAATCCGTATTTGTA (site GTATGCACTTA) — lower, 0.29
- GTATGCTCATGGACCGGTTTTCCCGGTAATCCGTATTTGTA (site GTATGCCCTTA) — lower, 1.2
- GTATGCTCATGGACCGGTTTTCCCGGTAATCCGTATTTGTA (site GTATGCGCTTA) — lower, 0.0181
- GTATGCTCATGGACCGGTTTTCCCGGTAATCCGTATTTGTA (site GTATGCTCTTA) — higher, 2.99
- GTATTCGCATGGACCGGTTTTCCCGGTAATCCGTATTTGCG (site GTAATCGCTCG) — lower, 0.015
- GTATTCGCATGGACCGGTTTTCCCGGTAATCCGTATTTGCG (site GTACTCGCTCG) — lower, 0.406
